Assay results reported in patent US9144598B2, “Reverse thermal gels and their use in cell therapy” (University of Pittsburgh—Of the Commonwealth System of …, priority 2010, dated 2015).
One block for each substance: values may come before it. No end group written: not given here.

Columns and labels:
[1] = buffer
Description: The storage modus (G′) of the polymer solutions in phosphate buffered saline (PBS) solution was measured by rheometer from 20° C. to 55° C.

[2] = system: Sprague Dawley rats; conditions: rat, in vivo, sc
Description: In vivo biocompatibility was evaluated in Sprague Dawley rats.

[3] = system: SH-SY5Y; assay: 2D neuronal cell culture: cell attachment and neurite outgrowth; type: cell-based; conditions: for neurite outgrowth without RA / neurite outgrowth with RA: 14-day culture; for neurite outgrowth with RA: 10 μM retinoic acid from day 7; for cell attachment on surface: 15% (wt) gel or laminin coated plate
Description: Cells, SH-SY5Y (ATCC, CRL-2266), were cultured in DMEM/F12 (1:1) medium with 10% fetal bovine serum (FBS), and 1% antibiotics. The cells were incubated in a humidified atmosphere with 5% CO2 at 37° C. The medium was refreshed every three days until the cells reached 95% confluence. The cells were harvested from the petri dish by incubation in 1 ml of trypsin solution (0.25%) for 5 min, neutralizing with 5 ml of serum-supplemented medium, centrifugation and removal of supernatant. The cell pellets were resuspended in serum-supplemented medium and 5×10^3 cells was used immediately for 2D neuronal cell culture.
Fifty μl of each solution (15%, wt) of pure reverse thermal gel and IKVAVS-GEL was transferred into 96-well plate on 37° C. heating plate. After 5 min, cell suspension (5×10^3 cells) in 150 μl of medium was added on top of the gel. For a control, the same number of cell suspension in 200 μl of medium was transferred into laminin coated 96-well plate. A 100 μl of medium was refreshed every two days. The cell growth was examined on a microscope. After 7-day culture, 10 μM of retinoic acid (RA) was added and neurite outgrowth was monitored on a microscope.

temperature range in which it remained gel [1]: 37-40 °C
Substance: poly(ethylene glycol)-poly(serinol hexamethylene urethane) [ESHU]
inflammatory response [2]: well tolerated inflammatory response

Substance: IKVAVS-GEL: IKVAVS (SEQ ID NO: 21) conjugated reverse thermal gel (also: conjugated to reverse thermal gel; listed as Homo sapiens)
neurite outgrowth without RA [3]: much better than that on pure reverse thermal gel | neurite outgrowth with RA [3]: much better than that on pure reverse thermal gel | cell attachment on surface [3]: attached well

Substance: laminin [reference compound]
neurite outgrowth without RA [3]: some short neurite outgrowth | neurite outgrowth with RA [3]: much dense and longer neurite outgrowth | cell attachment on surface [3]: attached very well
